ChEMBL document CHEMBL3758136, “Design, synthesis and in vitro activity of phidianidine B derivatives as novel PTP1B inhibitors with specific selectivity” (Bioorg Med Chem Lett, 2016)

Experiments:
[1] = molecular target: T1, Tyrosine-protein phosphatase non-receptor type 1 (Homo sapiens, UniProt P18031); assay: Inhibition of recombinant human PTP1B catalytic domain assessed as hydrolysis of pNPP after 2 mins
T1 sequence (P18031 whole entry): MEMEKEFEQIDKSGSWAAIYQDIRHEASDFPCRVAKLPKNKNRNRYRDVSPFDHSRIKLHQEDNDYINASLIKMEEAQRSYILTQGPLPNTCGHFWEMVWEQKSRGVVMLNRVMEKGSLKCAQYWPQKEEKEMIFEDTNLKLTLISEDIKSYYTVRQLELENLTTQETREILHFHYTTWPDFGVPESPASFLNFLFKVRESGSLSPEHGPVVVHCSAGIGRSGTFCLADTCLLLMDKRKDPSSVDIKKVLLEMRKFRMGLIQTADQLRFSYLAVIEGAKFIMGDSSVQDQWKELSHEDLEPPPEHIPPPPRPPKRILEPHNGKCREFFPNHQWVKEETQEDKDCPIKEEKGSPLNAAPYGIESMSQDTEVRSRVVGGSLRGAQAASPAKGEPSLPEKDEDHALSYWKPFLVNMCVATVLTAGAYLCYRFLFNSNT

[2] = molecular target: T2, Tyrosine-protein phosphatase non-receptor type 2 (Homo sapiens, UniProt P17706); assay: Inhibition of human TCPTP as hydrolysis of pNPP after 2 mins
T2 sequence (P17706 whole entry): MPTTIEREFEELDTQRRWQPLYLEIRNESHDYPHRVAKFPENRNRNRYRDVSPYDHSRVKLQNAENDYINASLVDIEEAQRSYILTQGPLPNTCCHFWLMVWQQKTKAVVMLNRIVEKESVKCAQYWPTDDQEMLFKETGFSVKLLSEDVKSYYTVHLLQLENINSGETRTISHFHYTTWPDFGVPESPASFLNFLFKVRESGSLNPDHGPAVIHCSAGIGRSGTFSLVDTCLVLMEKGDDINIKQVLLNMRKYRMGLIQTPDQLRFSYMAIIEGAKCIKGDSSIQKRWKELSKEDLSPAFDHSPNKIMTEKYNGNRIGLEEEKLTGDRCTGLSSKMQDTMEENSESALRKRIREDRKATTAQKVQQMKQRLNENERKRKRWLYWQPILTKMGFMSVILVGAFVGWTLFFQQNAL

[3] = molecular target: Tyrosine-protein phosphatase non-receptor type 6 (Homo sapiens, UniProt P29350); assay: Inhibition of human SHP1 as hydrolysis of pNPP after 2 mins
[4] = molecular target: T3, Tyrosine-protein phosphatase non-receptor type 11 (Homo sapiens, UniProt Q06124); assay: Inhibition of human SHP2 as hydrolysis of pNPP after 2 mins
T3 sequence (Q06124 whole entry): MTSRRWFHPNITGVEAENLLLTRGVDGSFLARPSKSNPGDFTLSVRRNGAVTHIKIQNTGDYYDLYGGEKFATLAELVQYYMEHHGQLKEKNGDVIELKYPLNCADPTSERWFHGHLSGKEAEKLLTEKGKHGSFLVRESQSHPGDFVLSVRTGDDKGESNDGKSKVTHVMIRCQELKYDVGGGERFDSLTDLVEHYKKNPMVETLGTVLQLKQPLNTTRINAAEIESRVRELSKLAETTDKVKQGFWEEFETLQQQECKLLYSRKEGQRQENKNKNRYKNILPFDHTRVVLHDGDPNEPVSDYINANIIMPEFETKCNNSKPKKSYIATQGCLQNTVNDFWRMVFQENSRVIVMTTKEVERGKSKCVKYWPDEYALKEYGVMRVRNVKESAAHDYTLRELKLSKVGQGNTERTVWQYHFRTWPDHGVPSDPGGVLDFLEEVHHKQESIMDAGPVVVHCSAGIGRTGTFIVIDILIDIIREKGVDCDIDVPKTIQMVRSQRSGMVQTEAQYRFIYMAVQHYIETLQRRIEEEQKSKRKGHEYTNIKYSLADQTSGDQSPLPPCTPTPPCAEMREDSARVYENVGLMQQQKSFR

[5] = molecular target: Receptor-type tyrosine-protein phosphatase F (Homo sapiens, UniProt P10586); assay: Inhibition of human LAR as hydrolysis of pNPP after 2 mins
Receptor-type tyrosine-protein phosphatase F, sequence (P10586 whole entry): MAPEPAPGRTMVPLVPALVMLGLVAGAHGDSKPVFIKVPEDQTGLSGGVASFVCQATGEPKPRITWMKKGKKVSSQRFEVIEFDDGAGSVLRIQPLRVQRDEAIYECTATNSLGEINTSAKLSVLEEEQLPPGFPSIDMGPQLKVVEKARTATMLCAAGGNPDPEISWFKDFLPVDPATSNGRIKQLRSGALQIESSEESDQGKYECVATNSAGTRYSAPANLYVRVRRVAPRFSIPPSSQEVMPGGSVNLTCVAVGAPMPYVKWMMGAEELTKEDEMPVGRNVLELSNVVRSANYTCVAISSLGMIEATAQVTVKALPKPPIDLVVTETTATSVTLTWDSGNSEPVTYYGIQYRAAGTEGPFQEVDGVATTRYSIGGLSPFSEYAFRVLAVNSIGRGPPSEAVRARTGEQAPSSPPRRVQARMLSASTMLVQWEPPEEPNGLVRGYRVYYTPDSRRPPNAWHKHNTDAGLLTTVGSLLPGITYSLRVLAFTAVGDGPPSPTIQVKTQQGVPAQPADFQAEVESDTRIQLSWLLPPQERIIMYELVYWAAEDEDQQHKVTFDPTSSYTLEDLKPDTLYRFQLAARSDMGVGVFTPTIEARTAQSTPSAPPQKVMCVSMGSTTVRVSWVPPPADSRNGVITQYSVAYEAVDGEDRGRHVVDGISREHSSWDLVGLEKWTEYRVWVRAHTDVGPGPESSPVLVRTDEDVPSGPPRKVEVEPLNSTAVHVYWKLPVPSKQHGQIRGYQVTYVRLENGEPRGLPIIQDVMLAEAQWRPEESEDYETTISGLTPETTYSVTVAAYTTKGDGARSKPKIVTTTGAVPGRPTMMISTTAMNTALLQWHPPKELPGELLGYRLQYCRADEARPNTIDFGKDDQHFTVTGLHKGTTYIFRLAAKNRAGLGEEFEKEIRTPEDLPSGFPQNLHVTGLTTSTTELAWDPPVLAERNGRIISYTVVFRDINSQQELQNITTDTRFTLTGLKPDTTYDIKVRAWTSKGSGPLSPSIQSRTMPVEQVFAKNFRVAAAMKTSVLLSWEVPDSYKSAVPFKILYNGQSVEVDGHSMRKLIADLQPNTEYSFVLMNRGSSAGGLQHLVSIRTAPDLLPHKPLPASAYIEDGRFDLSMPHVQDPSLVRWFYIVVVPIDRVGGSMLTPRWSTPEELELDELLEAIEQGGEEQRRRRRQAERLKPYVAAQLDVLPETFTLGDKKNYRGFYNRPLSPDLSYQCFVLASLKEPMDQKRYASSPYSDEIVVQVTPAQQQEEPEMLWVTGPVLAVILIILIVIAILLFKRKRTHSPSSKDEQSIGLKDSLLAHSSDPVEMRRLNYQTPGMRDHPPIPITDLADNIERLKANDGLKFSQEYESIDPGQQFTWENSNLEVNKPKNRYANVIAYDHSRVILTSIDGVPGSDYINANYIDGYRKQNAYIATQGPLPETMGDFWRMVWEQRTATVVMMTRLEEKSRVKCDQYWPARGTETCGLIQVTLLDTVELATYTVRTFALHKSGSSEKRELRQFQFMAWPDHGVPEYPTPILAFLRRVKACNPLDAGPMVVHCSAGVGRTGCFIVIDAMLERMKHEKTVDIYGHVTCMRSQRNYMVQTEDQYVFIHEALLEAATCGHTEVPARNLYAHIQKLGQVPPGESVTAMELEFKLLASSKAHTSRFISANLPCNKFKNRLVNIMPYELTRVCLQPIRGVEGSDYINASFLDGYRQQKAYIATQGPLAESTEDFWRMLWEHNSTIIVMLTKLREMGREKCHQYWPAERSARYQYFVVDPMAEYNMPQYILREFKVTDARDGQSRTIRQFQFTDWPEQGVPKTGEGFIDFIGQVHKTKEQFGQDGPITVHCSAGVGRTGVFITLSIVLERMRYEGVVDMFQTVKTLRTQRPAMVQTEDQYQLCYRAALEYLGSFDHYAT

Tyrosine-protein phosphatase non-receptor type 6, sequence (P29350 whole entry): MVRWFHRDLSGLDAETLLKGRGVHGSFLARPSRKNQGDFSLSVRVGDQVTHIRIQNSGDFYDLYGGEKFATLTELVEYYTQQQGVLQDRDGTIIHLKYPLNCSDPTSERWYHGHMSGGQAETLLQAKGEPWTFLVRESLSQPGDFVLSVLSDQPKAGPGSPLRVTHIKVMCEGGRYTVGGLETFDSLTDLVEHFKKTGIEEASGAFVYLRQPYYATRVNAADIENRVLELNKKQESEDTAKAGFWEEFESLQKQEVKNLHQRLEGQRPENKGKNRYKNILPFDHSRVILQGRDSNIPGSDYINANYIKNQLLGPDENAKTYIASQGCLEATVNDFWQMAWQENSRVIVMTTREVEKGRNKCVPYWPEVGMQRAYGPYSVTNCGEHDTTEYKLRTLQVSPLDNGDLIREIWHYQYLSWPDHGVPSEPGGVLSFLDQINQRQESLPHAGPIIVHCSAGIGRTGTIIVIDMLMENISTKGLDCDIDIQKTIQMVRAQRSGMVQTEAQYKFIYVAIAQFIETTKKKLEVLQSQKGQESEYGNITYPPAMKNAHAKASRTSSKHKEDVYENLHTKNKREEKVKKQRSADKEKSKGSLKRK

Row | Structure (SMILES) | IC50 [1] | IC50 [2] | IC50 [3] | IC50 [4] | IC50 [5]
1 | Nc1ccc(-c2ccc(-c3noc(Cc4c[nH]c5ccccc45)n3)s2)cc1 | > 120 µM | > 120 µM | > 120 µM | > 120 µM | > 120 µM
2 | Nc1ccc(-c2cccc(-c3noc(Cc4c[nH]c5ccccc45)n3)c2)cc1 | > 120 µM | > 120 µM | > 120 µM | > 120 µM | > 120 µM
3 | Brc1ccc(-c2noc(Cc3c[nH]c4ccccc34)n2)s1 | 14.1 µM | > 120 µM | > 120 µM | > 120 µM | > 120 µM
4 | Cc1ccccc1-c1ccc(-c2noc(Cc3c[nH]c4ccccc34)n2)s1 | 16.8 µM | > 120 µM | > 120 µM | > 120 µM | > 120 µM
5 | CCCCc1ccc(-c2ccc(-c3noc(Cc4c[nH]c5ccccc45)n3)s2)cc1 | 8.96 µM | > 120 µM | > 120 µM | > 120 µM | > 120 µM
6 | Brc1cccc(-c2noc(Cc3c[nH]c4ccccc34)n2)c1 | 19.7 µM | > 120 µM | > 120 µM | > 120 µM | > 120 µM
7 | CCCc1ccc(-c2ccc(-c3noc(Cc4c[nH]c5ccccc45)n3)s2)cc1 | 12.5 µM | > 120 µM | > 120 µM | > 120 µM | > 120 µM
8 | CCCCc1ccc(-c2cccc(-c3noc(Cc4c[nH]c5ccccc45)n3)n2)cc1 | 9.66 µM | > 120 µM | > 120 µM | > 120 µM | > 120 µM
9 | CCOc1ccc(-c2cccc(-c3noc(Cc4c[nH]c5ccccc45)n3)c2)cc1 | 15.9 µM | > 120 µM | > 120 µM | > 120 µM | > 120 µM
10 | COC(=O)CCCOc1ccc(-c2ccc(-c3noc(Cc4c[nH]c5ccccc45)n3)s2)cc1 | > 120 µM | > 120 µM | > 120 µM | > 120 µM | > 120 µM
11 | CCc1ccc(-c2ccc(-c3noc(Cc4c[nH]c5ccccc45)n3)s2)cc1 | 13.1 µM | > 120 µM | > 120 µM | > 120 µM | > 120 µM
12 | CCCOc1ccc(-c2cccc(-c3noc(Cc4c[nH]c5ccccc45)n3)c2)cc1 | 18.4 µM | > 120 µM | > 120 µM | > 120 µM | > 120 µM
13 | Cc1ccccc1-c1cccc(-c2noc(Cc3c[nH]c4ccccc34)n2)c1 | 24.4 µM | > 120 µM | > 120 µM | > 120 µM | > 120 µM
14 | Cc1cccc(-c2ccc(-c3noc(Cc4c[nH]c5ccccc45)n3)s2)c1 | > 120 µM | > 120 µM | > 120 µM | > 120 µM | > 120 µM
15 | CCOc1ccc(-c2cccc(-c3noc(Cc4c[nH]c5ccccc45)n3)n2)cc1 | 31.5 µM | > 120 µM | > 120 µM | > 120 µM | > 120 µM
16 | Cc1cccc(-c2cccc(-c3noc(Cc4c[nH]c5ccccc45)n3)c2)c1 | 15.8 µM | > 120 µM | > 120 µM | > 120 µM | > 120 µM
17 | CCCOc1ccc(-c2cccc(-c3noc(Cc4c[nH]c5ccccc45)n3)n2)cc1 | 9.66 µM | > 120 µM | > 120 µM | > 120 µM | > 120 µM
18 | CCOc1ccc(-c2ccc(-c3noc(Cc4c[nH]c5ccccc45)n3)s2)cc1 | 17.3 µM | > 120 µM | > 120 µM | > 120 µM | > 120 µM
19 | Brc1cccc(-c2noc(Cc3c[nH]c4ccccc34)n2)n1 | > 120 µM | > 120 µM | > 120 µM | > 120 µM | > 120 µM
20 | Oc1ccc(-c2cccc(-c3noc(Cc4c[nH]c5ccccc45)n3)c2)cc1 | 21.9 µM | > 120 µM | > 120 µM | > 120 µM | > 120 µM
21 | CCCOc1ccc(-c2ccc(-c3noc(Cc4c[nH]c5ccccc45)n3)s2)cc1 | 13.7 µM | > 120 µM | > 120 µM | > 120 µM | > 120 µM
22 | Cc1cccc(-c2cccc(-c3noc(Cc4c[nH]c5ccccc45)n3)n2)c1 | 21.7 µM | > 120 µM | > 120 µM | > 120 µM | > 120 µM
23 | CCCc1ccc(-c2cccc(-c3noc(Cc4c[nH]c5ccccc45)n3)c2)cc1 | > 120 µM | > 120 µM | > 120 µM | > 120 µM | > 120 µM
24 | Cc1ccccc1-c1cccc(-c2noc(Cc3c[nH]c4ccccc34)n2)n1 | 26.1 µM | > 120 µM | > 120 µM | > 120 µM | > 120 µM
25 | COC(=O)CCCOc1ccc(-c2cccc(-c3noc(Cc4c[nH]c5ccccc45)n3)c2)cc1 | > 120 µM | > 120 µM | > 120 µM | > 120 µM | > 120 µM
26 | CCCCc1ccc(-c2cccc(-c3noc(Cc4c[nH]c5ccccc45)n3)c2)cc1 | 8.8 µM | > 120 µM | > 120 µM | > 120 µM | > 120 µM
27 | CC1(C)CC[C@]2(C(=O)O)CC[C@]3(C)C(=CC[C@@H]4[C@@]5(C)CC[C@H](O)C(C)(C)[C@@H]5CC[C@]43C)[C@@H]2C1 [OLEANOLIC_ACID] |  |  |  | > 120 µM | > 120 µM
